Patent US7786141B2 (Vertex Pharmaceuticals Incorporated, priority 2004, dated 2010)

Key:
[1] = molecular target: T1, M1 muscarinic receptor (Homo sapiens, UniProt P11229); assay: Functional mobilization of intracellular calcium (FLIPR) in M1-CHO cells; assay type: cell-based; conditions: Table 4; for Emax: 100% efficacy is the maximum response obtained with the Carbachol control; for M1 Activity: modulating M1 receptor
T1 construct: expressed in transfected cells; host or cells: CHO (M1-CHO)
T1 sequence (P11229 1-460): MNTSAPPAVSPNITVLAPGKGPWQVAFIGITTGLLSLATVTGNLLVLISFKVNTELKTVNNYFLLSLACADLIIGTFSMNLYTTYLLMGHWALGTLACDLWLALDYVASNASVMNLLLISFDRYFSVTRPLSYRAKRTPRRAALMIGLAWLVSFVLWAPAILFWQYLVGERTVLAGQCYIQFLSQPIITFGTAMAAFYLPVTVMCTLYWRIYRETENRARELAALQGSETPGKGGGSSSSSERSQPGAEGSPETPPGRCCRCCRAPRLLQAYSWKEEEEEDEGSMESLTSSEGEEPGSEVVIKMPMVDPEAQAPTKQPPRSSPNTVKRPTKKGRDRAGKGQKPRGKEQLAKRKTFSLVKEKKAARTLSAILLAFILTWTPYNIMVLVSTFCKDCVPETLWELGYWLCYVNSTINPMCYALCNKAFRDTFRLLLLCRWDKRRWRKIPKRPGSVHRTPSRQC
Outline: (§1)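 Measured via Fluo-3 fluorescence on a FLIPR, CHO cells with either muscarinic subtype received compound in 0.5% DMSO. Antagonism was assessed after 15 min pre-incubation followed by carbachol at each subtype's EC80; agonism from compound addition alone.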

[2] = molecular target: T2, M4 muscarinic receptor (Homo sapiens, UniProt P08173); assay: Functional mobilization of intracellular calcium (FLIPR) in M4-CHO cells; assay type: cell-based; conditions: Table 4; for Emax: 100% efficacy is the maximum response obtained with the Carbachol control; for M4 Activity: modulating M4 receptor
T2 construct: expressed in transfected cells; host or cells: CHO (M4-CHO)
T2 sequence (P08173 1-479): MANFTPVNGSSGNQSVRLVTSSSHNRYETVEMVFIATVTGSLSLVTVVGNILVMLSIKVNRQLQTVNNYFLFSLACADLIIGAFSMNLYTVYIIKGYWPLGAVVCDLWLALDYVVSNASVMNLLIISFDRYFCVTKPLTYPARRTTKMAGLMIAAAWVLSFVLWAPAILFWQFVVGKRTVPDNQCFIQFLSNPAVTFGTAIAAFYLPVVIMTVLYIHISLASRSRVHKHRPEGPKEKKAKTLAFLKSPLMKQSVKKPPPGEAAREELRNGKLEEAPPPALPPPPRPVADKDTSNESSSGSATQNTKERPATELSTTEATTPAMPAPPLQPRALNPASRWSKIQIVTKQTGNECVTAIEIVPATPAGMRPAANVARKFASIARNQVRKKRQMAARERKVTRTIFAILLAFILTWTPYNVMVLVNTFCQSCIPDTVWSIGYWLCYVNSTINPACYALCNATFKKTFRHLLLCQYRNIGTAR
Outline: as §1

Structure (SMILES): CN(C)C(=O)N1CC2(CCN(C3CCN(C(=O)CC(F)(F)F)CC3)CC2)c2cc(F)ccc21 [compound 592]
- Emax [1]: 25 to 100%
- M1 Activity [1]: xx (activity was measured to be between 2.0 μM and 5.0 μM)
- Emax [2]: < 25%
- M4 Activity [2]: x (activity was measured to be greater than 5.0 μM)

Structure (SMILES): Cc1ccc(N2CCC(N3CCC4(CC3)CN(C(=O)N(C)C)c3ccc(F)cc34)CC2)nn1 [compound 594]
- Emax [1]: 25 to 100%
- M1 Activity [1]: x (activity was measured to be greater than 5.0 μM)
- Emax [2]: < 25%
- M4 Activity [2]: xx (activity was measured to be between 2.0 μM and 5.0 μM)

Structure (SMILES): CN(C)C(=O)N1CC2(CCN(C3CCN(C(=O)OCC4CC4)CC3)CC2)c2cc(F)ccc21 [compound 595]
- Emax [1]: 25 to 100%
- M1 Activity [1]: xxx (activity was measured to be less than 2.0 μM)
- Emax [2]: 25 to 100%
- M4 Activity [2]: xxx (activity was measured to be less than 2.0 μM)

Structure (SMILES): CCCOC(=O)N1CCC(N2CCC3(CC2)CN(CCOC)c2ccc(F)cc23)CC1 [compound 596]
- Emax [1]: 25 to 100%
- M1 Activity [1]: xxx (activity was measured to be less than 2.0 μM)
- Emax [2]: 25 to 100%
- M4 Activity [2]: xxx (activity was measured to be less than 2.0 μM)

Structure (SMILES): Cc1ccc2c(c1)C1(CCN(C3CC4CCC3C4)CC1)CN2C(=O)c1ccco1 (stereo not shown) [compound 597]
- Emax [1]: 25 to 100%
- M1 Activity [1]: x (activity was measured to be greater than 5.0 μM)
- Emax [2]: < 25%
- M4 Activity [2]: x (activity was measured to be greater than 5.0 μM)

Structure (SMILES): CCOC(=O)N1CCC(N2CCC3(CC2)CN(C(=O)N2CCCCC2)c2ccc(F)cc23)CC1 [compound 598]
- Emax [1]: 25 to 100%
- M1 Activity [1]: xxx (activity was measured to be less than 2.0 μM)
- Emax [2]: 25 to 100%
- M4 Activity [2]: xxx (activity was measured to be less than 2.0 μM)

Structure (SMILES): COc1cc2c(cc1OC)C1(CCN(C3CCCCCCCCCCC3)CC1)C[C@@H]2NC(C)=O [compound 599]
- Emax [1]: 25 to 100%
- M1 Activity [1]: x (activity was measured to be greater than 5.0 μM)
- Emax [2]: 25 to 100%
- M4 Activity [2]: x (activity was measured to be greater than 5.0 μM)

Structure (SMILES): CC(=O)N1CC2(CCN(CC3=C(C)C=CCC3(C)C)CC2)c2cc(F)ccc21 [compound 600]
- Emax [1]: < 25%
- M1 Activity [1]: x (activity was measured to be greater than 5.0 μM)
- Emax [2]: < 25%
- M4 Activity [2]: x (activity was measured to be greater than 5.0 μM)

Structure (SMILES): CC(=O)N[C@H]1CCC2(CCN(CC3CCOC3)CC2)c2ccccc21 (stereo partly shown) [compound 602]
- Emax [1]: 25 to 100%
- M1 Activity [1]: xxx (activity was measured to be less than 2.0 μM)
- Emax [2]: 25 to 100%
- M4 Activity [2]: xx (activity was measured to be between 2.0 μM and 5.0 μM)

Structure (SMILES): CCOC(=O)N1CCC(N2CCC3(CC2)CN(C(C)=O)c2ccc(C(F)(F)F)cc23)CC1 [compound 603]
- Emax [1]: 25 to 100%
- M1 Activity [1]: xxx (activity was measured to be less than 2.0 μM)
- Emax [2]: 25 to 100%
- M4 Activity [2]: xxx (activity was measured to be less than 2.0 μM)

Structure (SMILES): CCCCOC(=O)N1C2CCC1CC(N1CCC3(CC1)CN(C(C)=O)c1ccccc13)C2 (stereo not shown) [compound 604]
- Emax [1]: < 25%
- M1 Activity [1]: x (activity was measured to be greater than 5.0 μM)
- Emax [2]: 25 to 100%
- M4 Activity [2]: xxx (activity was measured to be less than 2.0 μM)

Structure (SMILES): CC(=O)N[C@H]1CCC2(CCN(CC3CCCCC3)CC2)c2ccccc21 [compound 605]
- Emax [1]: 25 to 100%
- M1 Activity [1]: xxx (activity was measured to be less than 2.0 μM)
- Emax [2]: 25 to 100%
- M4 Activity [2]: xxx (activity was measured to be less than 2.0 μM)

Structure (SMILES): CCOC(=O)N1C2CCC1CC(N1CCC3(CC1)CN(C(C)=O)c1ccc(C(C)C)cc13)C2 (stereo not shown) [compound 606]
- Emax [1]: 25 to 100%
- M1 Activity [1]: xxx (activity was measured to be less than 2.0 μM)
- Emax [2]: 25 to 100%
- M4 Activity [2]: xxx (activity was measured to be less than 2.0 μM)

Structure (SMILES): COCCOC(=O)N1C2CCC1CC(N1CCC3(CC1)CN(C(C)=O)c1ccccc13)C2 (stereo not shown) [compound 607]
- Emax [1]: 25 to 100%
- M1 Activity [1]: xxx (activity was measured to be less than 2.0 μM)
- Emax [2]: 25 to 100%
- M4 Activity [2]: xxx (activity was measured to be less than 2.0 μM)

Structure (SMILES): CN(C)C(=O)N1CC2(CCN(C[C@@H]3CCN(c4cnccn4)C3)CC2)c2cc(F)ccc21 [compound 608]
- Emax [1]: 25 to 100%
- M1 Activity [1]: xxx (activity was measured to be less than 2.0 μM)
- Emax [2]: 25 to 100%
- M4 Activity [2]: xxx (activity was measured to be less than 2.0 μM)

Structure (SMILES): O=C1CC2(CCN(C3CCCCCC3)CC2)c2ccc(Cl)cc21 [compound 609]
- Emax [1]: 25 to 100%
- M1 Activity [1]: xx (activity was measured to be between 2.0 μM and 5.0 μM)
- Emax [2]: 25 to 100%
- M4 Activity [2]: xxx (activity was measured to be less than 2.0 μM)

Structure (SMILES): CCOC(=O)N1CCC(N2CCC3(CC2)CN(C(C)=O)c2c(C)cc(C)cc23)CC1 [compound 610]
- Emax [1]: 25 to 100%
- M1 Activity [1]: xxx (activity was measured to be less than 2.0 μM)
- Emax [2]: 25 to 100%
- M4 Activity [2]: xxx (activity was measured to be less than 2.0 μM)

Structure (SMILES): CC(=O)N1CC2(CCN(C3CCN(c4cncc(C5CC5)n4)CC3)CC2)c2ccccc21 [compound 611]
- Emax [1]: 25 to 100%
- M1 Activity [1]: xxx (activity was measured to be less than 2.0 μM)
- Emax [2]: < 25%
- M4 Activity [2]: x (activity was measured to be greater than 5.0 μM)

Structure (SMILES): O=C(O)C1CC2(CCN(C3CCCCC3)CC2)c2ccccc21 (stereo not shown) [compound 612]
- Emax [1]: < 25%
- M1 Activity [1]: x (activity was measured to be greater than 5.0 μM)
- Emax [2]: 25 to 100%
- M4 Activity [2]: x (activity was measured to be greater than 5.0 μM)

Structure (SMILES): CC#CC(C)OC(=O)N1CCC(N2CCC3(CC2)CN(C(=O)N(C)C)c2ccc(F)cc23)CC1 (stereo not shown) [compound 614]
- Emax [1]: 25 to 100%
- M1 Activity [1]: xxx (activity was measured to be less than 2.0 μM)
- Emax [2]: 25 to 100%
- M4 Activity [2]: xxx (activity was measured to be less than 2.0 μM)

Structure (SMILES): CCOC(=O)N1CCC(N2CCC3(CC2)CN(C(C)=O)c2cccc(C(F)(F)F)c23)CC1 [compound 615]
- Emax [1]: 25 to 100%
- M1 Activity [1]: xxx (activity was measured to be less than 2.0 μM)
- Emax [2]: < 25%
- M4 Activity [2]: xx (activity was measured to be between 2.0 μM and 5.0 μM)

Structure (SMILES): CC(=O)NC1CCC2(CCN(CC3CCOCC3)CC2)c2ccccc21 (stereo not shown) [compound 616]
- Emax [1]: > 100%
- M1 Activity [1]: xxx (activity was measured to be less than 2.0 μM)
- Emax [2]: 25 to 100%
- M4 Activity [2]: x (activity was measured to be greater than 5.0 μM)

Structure (SMILES): CN(C)C(=O)N[C@H]1CCC2(CCN(C3CCCCCC3)CC2)c2ccccc21 [compound 617]
- Emax [1]: 25 to 100%
- M1 Activity [1]: xx (activity was measured to be between 2.0 μM and 5.0 μM)
- Emax [2]: > 100%
- M4 Activity [2]: xxx (activity was measured to be less than 2.0 μM)

Structure (SMILES): CCC=CCOC(=O)N1C2CCC1CC(N1CCC3(CC1)CN(C(C)=O)c1ccccc13)C2 (stereo not shown) [compound 618]
- Emax [1]: 25 to 100%
- M1 Activity [1]: xxx (activity was measured to be less than 2.0 μM)
- Emax [2]: 25 to 100%
- M4 Activity [2]: xxx (activity was measured to be less than 2.0 μM)

Structure (SMILES): CN(C)C(=O)N1CC2(CCN(C3CCN(C(=O)c4ccon4)CC3)CC2)c2cc(F)ccc21 [compound 619]
- Emax [1]: 25 to 100%
- M1 Activity [1]: xx (activity was measured to be between 2.0 μM and 5.0 μM)
- Emax [2]: 25 to 100%
- M4 Activity [2]: xxx (activity was measured to be less than 2.0 μM)
